The numbers were not newly measured in US5567683A, “Substituted lactose and lactosamine derivatives as cell adhesion inhibitors” (Glycomed Incorporated, priority 1994, dated 1996), which cites them from elsewhere.

This data set concerns mammalian hepatocytes. The note with it: effect of valency and spacing of lactose moieties; read-out: IC50 for inhibition of labeled ASOR binding to mammalian hepatocytes.

For orientation: IC50 means the concentration needed to halve the response being measured. For the compound `OC[C@H]1O[C@@H](O[C@H]2[C@H](O)[C@@H](O)C(O)O[C@@H]2CO)[C@H](O)[C@@H](O)[C@H]1O` (stereo partly shown) [monovalent lactose, lactose], the IC50 is 500 µM.
